IC50 and Ki data for one compound are collected here from ChEMBL document CHEMBL3886335, “Difluorolactam compounds as EP4 receptor-selective agonists for use in the treatment of EP4-mediated diseases and conditions” (2015).

In general, IC50 refers to the concentration that gives 50% inhibition. The term Ki denotes the equilibrium dissociation constant of an inhibitor or competing ligand from its target.

This assay concerns the target Prostaglandin E2 receptor EP4 subtype (Homo sapiens, UniProt P35408). The assay is described as follows: The filters are dried then counted for radioactivity in a scintillation counter (Topcount, Packard) using a scintillation cocktail (Microscint 0, Packard). The format is cell membranes.

Prostaglandin E2 receptor EP4 subtype, sequence (P35408 whole entry): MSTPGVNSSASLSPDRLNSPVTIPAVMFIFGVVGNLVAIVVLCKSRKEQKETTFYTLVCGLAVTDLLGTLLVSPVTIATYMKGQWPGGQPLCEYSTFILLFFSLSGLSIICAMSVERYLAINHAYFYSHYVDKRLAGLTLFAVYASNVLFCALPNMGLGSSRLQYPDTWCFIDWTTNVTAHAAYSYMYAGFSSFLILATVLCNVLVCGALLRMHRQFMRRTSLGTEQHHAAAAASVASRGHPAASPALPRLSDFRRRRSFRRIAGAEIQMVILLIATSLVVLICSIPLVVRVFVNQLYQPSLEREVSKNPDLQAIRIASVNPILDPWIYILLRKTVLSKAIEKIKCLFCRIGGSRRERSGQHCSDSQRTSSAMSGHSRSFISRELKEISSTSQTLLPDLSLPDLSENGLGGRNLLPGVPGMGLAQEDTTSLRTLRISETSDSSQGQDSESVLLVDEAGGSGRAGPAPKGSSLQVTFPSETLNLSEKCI

For the compound `CCC#CC[C@H](C)[C@H](O)/C=C/[C@H]1CC(F)(F)C(=O)N1CCCc1ccc(C(=O)O)s1`, the IC50 stood at 3.3 nM and the inhibition constant Ki came to 1.2 nM.
